Results: patent publication US20240050428A1 (Cullgen (Shanghai), Inc., priority 2020, published 2024)
pIC50: −log10 of the molar value. Where two headings read alike, the source gives them in different places.

Columns and labels:
MOLM-13 cells = assay: Cell viability assay (CellTiter-Glo) in MOLM-13 cells, alone or with gilteritinib; format: cell-based; conditions: Homo sapiens, MOLM-13, 72 h, MOLM-13 cells, three days, CellTiter-Glo
MV4;11 cells = assay: Cell viability assay (CellTiter-Glo) in MV4;11 cells, alone or with gilteritinib; format: cell-based; conditions: Homo sapiens, MV4-11, 72 h, MV4;11 cells, three days, CellTiter-Glo, read-out: MV4
[1] = compound alone (without gilteritinib), read-out: MOLM-13 IC50
[2] = with gilteritinib 20 nM, read-out: MOLM-13 IC50 gilteritinib
[3] = compound alone (without gilteritinib), 11 IC50
[4] = with gilteritinib 10 nM, 11 IC50 gilteritinib

Row | Compound | pIC50 (MOLM-13 cells; [1]) | pIC50 (MOLM-13 cells; [2]) | pIC50 (MV4;11 cells; [3]) | pIC50 (MV4;11 cells; [4])
1 | O=C1CCC(N2C(=O)c3ccc(NCCC[C@H]4C[C@H](n5cc(-c6cnc7ccc(N8CCNC9(CC9)C8)cc7n6)cn5)C4)cc3C2=O)C(=O)N1 (stereo partly drawn) [GS-220, 5-((3-(trans-3-(4-(7-(4,7-Diazaspiro[2.5]octan-7-yl)quinoxalin-2-yl)-1H-pyrazol-1-yl)cyclobutyl)propyl)amino)-2-(2,6-dioxopiperidin-3-yl)isoindoline-1,3-dione] | < 6.00 | 6.00 to 7.00 | < 6.00 | 6.00 to 7.00
2 | Cc1nn([C@H]2C[C@@H](CCCNc3ccc4c(c3)C(=O)N(C3CCC(=O)NC3=O)C4=O)C2)cc1-c1cnc2ccc(N3CCOCC3)cc2n1 (stereo partly drawn) [GS-221, 2-(2,6-Dioxopiperidin-3-yl)-5-((3-(cis-3-(3-methyl-4-(7-morpholinoquinoxalin-2-yl)-1H-pyrazol-1-yl)cyclobutyl)propyl)amino)isoindoline-1,3-dione] | > 8.00 | > 8.00 | > 8.00 | > 8.00
3 | O=C1CCC(N2C(=O)c3ccc(NCCC[C@H]4C[C@H](n5cc(-c6cccc(NC7CCOCC7)n6)cn5)C4)cc3C2=O)C(=O)N1 (stereo partly drawn) [GS-222, 2-(2,6-Dioxopiperidin-3-yl)-5-((3-(trans-3-(4-(6-((tetrahydro-2H-pyran-4-yl)amino)pyridin-2-yl)-1H-pyrazol-1-yl)cyclobutyl)propyl)amino)isoindoline-3-dione] | < 6.00 | 7.00 to 8.00 | < 6.00 | 6.00 to 7.00
4 | Cc1nn([C@H]2C[C@@H](CCCNc3ccc4c(c3)C(=O)N(C3CCC(=O)NC3=O)C4=O)C2)cc1-c1cnc2ccc(C3CCOCC3)cc2n1 (stereo partly drawn) [GS-223, 2-(2,6-Dioxopiperidin-3-yl)-5-((3-(cis-3-(3-methyl-4-(7-(tetrahydro-2H-pyran-4-yl)quinoxalin-2-yl)-1H-pyrazol-1-yl)cyclobutyl)propyl)amino)isoindoline-1,3-dione] | > 8.00 | > 8.00 | > 8.00 | > 8.00
5 | CN1CCC(c2ccc3ncc(-c4cnn([C@H]5C[C@H](CCCNc6ccc7c(c6)C(=O)N(C6CCC(=O)NC6=O)C7=O)C5)c4)nc3c2)CC1 (stereo partly drawn) [GS-224, 2-(2,6-Dioxopiperidin-3-yl)-5-((3-(trans-3-(4-(7-(1-methylpiperidin-4-yl)quinoxalin-2-yl)-1H-pyrazol-1-yl)cyclobutyl)propyl)amino)isoindoline-1,3-dione] | 6.00 to 7.00 | > 8.00 | 6.00 to 7.00 | 7.00 to 8.00
6 | O=C1CCC(N2Cc3ccc(CCCCC4CC(n5cc(-c6cnc7ccccc7n6)cn5)C4)cc3C2=O)C(=O)N1 (stereo not drawn) [GS-225, 3-(1-Oxo-6-(4-(3-(4-(quinoxalin-2-yl)-1H-pyrazol-1-yl)cyclobutyl)butyl)isoindolin-2-yl)piperidine-2,6-dione] | < 6.00 | 7.00 to 8.00 | 6.00 to 7.00 | 7.00 to 8.00
7 | O=C1CCC(N2Cc3cc(CCCCC4CC(n5cc(-c6cnc7ccccc7n6)cn5)C4)ccc3C2=O)C(=O)N1 (stereo not drawn) [GS-226, 3-(1-Oxo-5-(4-(3-(4-(quinoxalin-2-yl)-1H-pyrazol-1-yl)cyclobutyl)butyl)isoindolin-2-yl)piperidine-2,6-dione] | < 6.00 | < 6.00 | 6.00 to 7.00 | 6.00 to 7.00
8 | O=C1CCC(N2C(=O)c3ccc(NCCC[C@H]4C[C@@H](n5cc(-c6cnc7ccc(N8CCOCC8)cc7n6)c(C6CC6)n5)C4)cc3C2=O)C(=O)N1 (stereo partly drawn) [GS-227, 5-((3-(cis-3-(3-Cyclopropyl-4-(7-morpholinoquinoxalin-2-yl)-1H-pyrazol-1-yl)cyclobutyl)propyl)amino)-2-(2,6-dioxopiperidin-3-yl)isoindoline-1,3-dione] | > 8.00 | > 8.00 | > 8.00 | > 8.00
9 | O=C1CCC(N2C(=O)c3ccc(NCCC[C@H]4C[C@H](n5cc(-c6cnc7ccc(CN8CCNCC8)cc7n6)c(C6CC6)n5)C4)cc3C2=O)C(=O)N1 (stereo partly drawn) [GS-228, 5-((3-(trans-3-(3-Cyclopropyl-4-(7-(piperazin-1-ylmethyl)quinoxalin-2-yl)-1H-pyrazol-1-yl)cyclobutyl)propyl)amino)-2-(2,6-dioxopiperidin-3-yl)isoindoline-1,3-dione] | > 8.00 | > 8.00 | > 8.00 | > 8.00
10 | O=C1CCC(N2C(=O)c3ccc(NCCC[C@H]4C[C@H](n5cc(-c6cnc7ccc(OC8CCNCC8)cc7n6)c(C6CC6)n5)C4)cc3C2=O)C(=O)N1 (stereo partly drawn) [GS-229, 5-((3-(trans-3-(3-Cyclopropyl-4-(7-(piperidin-4-yloxy)quinoxalin-2-yl)-1H-pyrazol-1-yl)cyclobutyl)propyl)amino)-2-(2,6-dioxopiperidin-3-yl)isoindoline-1,3-dione] | 7.00 to 8.00 | > 8.00 | 7.00 to 8.00 | > 8.00
11 | O=C1CCC(N2C(=O)c3ccc(NCCC[C@H]4C[C@H](n5cc(-c6cnc7ccc(CN8CCOCC8)cc7n6)c(C6CC6)n5)C4)cc3C2=O)C(=O)N1 (stereo partly drawn) [GS-230, 5-((3-(trans-3-(3-Cyclopropyl-4-(7-(morpholinomethyl)quinoxalin-2-yl)-1H-pyrazol-1-yl)cyclobutyl)propyl)amino)-2-(2,6-dioxopiperidin-3-yl)isoindoline-1,3-dione] | 7.00 to 8.00 | > 8.00 | 7.00 to 8.00 | > 8.00
12 | O=C1CCC(N2C(=O)c3ccc(NCCC[C@H]4C[C@@H](n5cc(-c6cnc7ccc(C8CCNCC8)cc7n6)c(C6CC6)n5)C4)cc3C2=O)C(=O)N1 (stereo partly drawn) [GS-231, 5-((3-(cis-3-(3-Cyclopropyl-4-(7-(piperidin-4-yl)quinoxalin-2-yl)-1H-pyrazol-1-yl)cyclobutyl)propyl)amino)-2-(2,6-dixopiperidin-3-yl)isoindoline-1,3-dione] | 7.00 to 8.00 | > 8.00 | 7.00 to 8.00 | > 8.00
13 | O=C1CCC(N2C(=O)c3ccc(NCCC[C@H]4C[C@H](n5cc(-c6ccccc6)cn5)C4)cc3C2=O)C(=O)N1 (stereo partly drawn) [GS-232, 2-(2,6-Dioxopiperidin-3-yl)-5-((3-(trans-3-(4-phenyl-1H-pyrazol-1-yl)cyclobutyl)propyl)amino)isoindoline-1,3-dione] | 6.00 to 7.00 | < 6.00 | 6.00 to 7.00 | 6.00 to 7.00
14 | N#Cc1cccc2nc(-c3cnn([C@H]4C[C@H](CCCNc5ccc6c(c5)C(=O)N(C5CCC(=O)NC5=O)C6=O)C4)c3)cnc12 (stereo partly drawn) [GS-233, 2-(1-(trans-3-(3-((2-(2,6-Dioxopiperidin-3-yl)-1,3-dioxoisoindolin-5-yl)amino)propyl)cyclobutyl)-1H-pyrazol-4-yl)quinoxaline-5-carbonitrile] | 6.00 to 7.00 | 7.00 to 8.00 | 6.00 to 7.00 | 7.00 to 8.00
15 | O=C1CCC(N2C(=O)c3ccc(NCCC[C@H]4C[C@H](n5cc(-c6cnc7c(F)cccc7n6)cn5)C4)cc3C2=O)C(=O)N1 (stereo partly drawn) [GS-234, 2-(2,6-Dioxopiperidin-3-yl)-5-((3-(trans-3-(4-(5-fluoroquinoxalin-2-yl)-1H-pyrazol-1-yl)cyclobutyl)propyl)amino)isoindoline-1,3-dione] | 6.00 to 7.00 | 7.00 to 8.00 | > 8.00 | 7.00 to 8.00
16 | O=C1CCC(N2C(=O)c3ccc(NCCC[C@H]4C[C@H](n5cc(-c6cnccn6)cn5)C4)cc3C2=O)C(=O)N1 (stereo partly drawn) [GS-235, 2-(2,6-Dioxopiperidin-3-yl)-5-((3-(trans-3-(4-(pyrazin-2-yl)-1H-pyrazol-1-yl)cyclobutyl)propyl)amino)isoindoline-1,3-dione] | < 6.00 | 6.00 to 7.00 | > 8.00 | 6.00 to 7.00
17 | O=C1CCC(N2C(=O)c3ccc(NCCC[C@H]4C[C@H](n5cc(-c6cccc(C7CCOCC7)n6)cn5)C4)cc3C2=O)C(=O)N1 (stereo partly drawn) [GS-236, 2-(2,6-Dioxopiperidin-3-yl)-5-((3-(trans-3-(4-(6-(tetrahydro-2H-pyran-4-yl)pyridin-2-yl)-1H-pyrazol-1-yl)cyclobutyl)propyl)amino)isoindoline-1,3-dione] | 6.00 to 7.00 | 7.00 to 8.00 | 6.00 to 7.00 | 7.00 to 8.00
18 | CN1CCC(c2cccc(-c3cnn([C@H]4C[C@H](CCCNc5ccc6c(c5)C(=O)N(C5CCC(=O)NC5=O)C6=O)C4)c3)n2)CC1 (stereo partly drawn) [GS-237, 2-(2,6-Dioxopiperidin-3-yl)-5-((3-(trans-3-(4-(6-(1-methylpiperidin-4-yl)pyridin-2-yl)-1H-pyrazol-1-yl)cyclobutyl)propyl)amino)isoindoline-1,3-dione] | < 6.00 | 6.00 to 7.00 | < 6.00 | 6.00 to 7.00
19 | O=C1CCC(N2C(=O)c3ccc(NCCC[C@H]4C[C@H](n5cc(-c6cccc(C7CCNCC7)n6)cn5)C4)cc3C2=O)C(=O)N1 (stereo partly drawn) [GS-238, 2-(2,6-Dioxopiperidin-3-yl)-5-((3-(trans-3-(4-(6-(piperidin-4-yl)pyridin-2-yl)-1H-pyrazol-1-yl)cyclobutyl)propyl)amino)isoindoline-1,3-dione] | 7.00 to 8.00 | 7.00 to 8.00 | 6.00 to 7.00 | 7.00 to 8.00
20 | O=C1CCC(N2C(=O)c3ccc(NCCC[C@H]4C[C@H](n5cc(-c6ccnc(N7CCOCC7)n6)cn5)C4)cc3C2=O)C(=O)N1 (stereo partly drawn) [GS-239, 2-(2,6-Dioxopiperidin-3-yl)-5-((3-(trans-3-(4-(2-morpholinopyrimidin-4-yl)-1H-pyrazol-1-yl)cyclobutyl)propyl)amino)isoindoline-1,3-dione] | < 6.00 | 7.00 to 8.00 | 6.00 to 7.00 | 7.00 to 8.00
21 | O=C1CCC(N2C(=O)c3ccc(NCCC[C@H]4C[C@H](n5cc(-c6nccc(N7CCOCC7)n6)cn5)C4)cc3C2=O)C(=O)N1 (stereo partly drawn) [GS-240, 2-(2,6-Dioxopiperidin-3-yl)-5-((3-(trans-3-(4-(4-morpholinopyrimidin-2-yl)-1H-pyrazol-1-yl)cyclobutyl)propyl)amino)isoindoline-1,3-dione] | 6.00 to 7.00 | 7.00 to 8.00 | 7.00 to 8.00 | > 8.00
